From patent US20190328691A1, “ANTIBIOTIC THERAPY” (Boulos & Cooper Pharmaceuticals Pty Ltd, priority 2015, published 2019) come the findings set out here.

“And” between values parts separate entries of the source, which are not always exact repeats. Identical values can stand only once. Like-named read-outs stand apart in the source and are kept apart here.

Test [1] deals with Staphylococcus aureus (ATCC 29213). Description: Checkerboard combination / MIC assay with S. aureus ATCC 29213. The class given is cell-based. To be noted: S. aureus ATCC 29213; for MIC: Staphylococcus aureus, read-out: MIC of antibiotic alone. Here is the method:
(§1) Colonies were suspended in PBS. The absorbance of each suspension was measured with a spectrophotometer, and then the suspension was adjusted to 1×10^6 CFU/mL. The testing inoculum was prepared within 20 minutes before adding to wells of the test plate. Final cellular density in the checkerboard assays was 5×10^5 CFU/mL.
(§2) The combination effect of antibacterial substances administered together was evaluated by an in vitro checkerboard combination method with Staphylococcus aureus (ATCC 29213) and Staphylococcus aureus (BAA-1717). Ramizol and Chlopam were tested alone in 11 points by two-fold serial titration and in combination with different commercial antibiotics which were tested in a 7-point titration alone and in combination with Ramizol and Chlopam using the checkerboard technique as recommended by the Clinical & Laboratory Standards Institute (CLSI. Methods for Dilution In Antimicrobial Susceptibility Tests for Bacteria That Grow Aerobically; Approved Standard-Eighth Edition. CLSI document M07-A8 (ISBN 1-56238-689-1). Vol. 29 No. 2. Clinical and Laboratory Standards Institute, USA, 2009). The commercial antibiotics were also tested alone. Twenty-four checkerboard tests were performed.
(§3) The starting concentration of Ramizol, Chlopam, and the commercial antibiotics was four fold of the MIC. The testing range for each combination was described in the following summary tables.
(§4) Compound dilutions of Ramizol and Chlopam were performed in 100% DMSO and the final DMSO concentration in all test wells was 2%. Growth control wells also included 2% DMSO. CLSI protocol was followed for medium, inoculum preparation, and endpoint reading. The commercial antibiotics were dissolved and diluted in the CLSI specified diluent. The final inoculum count for each strain was 5×10^5 CFU/mL.
Cefepime, Daptomycin, Linezolid, Mupirocin, Oxacillin and Vancomycin were also tested alone. Each test substance was dissolved and diluted in 100% DMSO or specified solvent. Each test substance dilution (2 μL) was added to 96 μL broth CAMHB. CAMHB seeded with S. aureus ATCC 29213 at 1×10^6 CFU/mL (100 μL) was then added to the plate to generate a final cell count at 5×10^5 CFU/mL.
(§5) Assay plates were incubated and MIC endpoints were read as described in the MIC assay. FIC (Fraction Inhibitory Concentration) and FIC Index (FICI) values for each test condition and the average of FICI values of all pairwise combinations were calculated to determine if synergy or antagonism existed between the two substances. The FIC index was determined by calculating the sum of the ratios of MICs for both substances. Arithmetically, the FIC Index of a combination of Substance 1 and Substance 2 was defined as following: FICI=Σ[FIC(Substance 1)+FIC(Substance 2)]=[(MIC of Substance 1 in combination/MIC of Substance 1 alone)+(MIC of Substance 2 in combination/MIC of Substance 2 alone)]. Synergy is defined as the FICI (Σ)≤0.5; additivity as FICI (Σ)>0.5 to ≤1; indifference as FICI (Σ)>1 to ≤4; antagonism is defined as the FICI (Σ)>4 (Zinner and Blaser, J. Journal of Antimicrobial Chemotherapy (1986), 17, 1-5; Amin, et al BMC Complementary & Alternative Medicine (2015), 15, 59; Zuo, et al. Molecules (2011), 16, 9819-9826).

For test [2], the system named is Staphylococcus aureus (BAA-1717). Description: Checkerboard combination / MIC assay with S. aureus BAA-1717 (MRSA). The class given is cell-based. To be noted: for MIC: Staphylococcus aureus, ATCC BAA-1717 / BAA-1717, read-out: MIC of antibiotic alone. The method, then: as §1, §2, §3, §4
Each test substance was dissolved and diluted in 100% DMSO or specified solvent. Each test substance dilution (2 μL) was added to 96 μL broth CAMHB. CAMHB seeded with S. aureus BAA-1717 at 1×10^6 CFU/mL (100 μL) was then added to the plate to generate a final cell count at 5×10^5 CFU/mL.
as §5

The mark [3] stands for this setting: ATCC29213, Table 7, checkerboard series with Ramizol.
Where [4] appears, read: ATCC29213, Table 4, checkerboard series with Chlopam.

Consider `O=C(O)c1ccc(/C=C/c2cc(/C=C/c3ccc(C(=O)O)cc3)cc(/C=C/c3ccc(C(=O)O)cc3)c2)cc1` [Ramizol, 1,3,5-Tris[(1E)-2′-(4″-benzoic acid)vinyl]benzene], for which the minimal inhibitory concentration (MIC) (commonly the lowest concentration found to suppress growth) in test [1] (setting [3]) came to 4 µg/mL; in test [2] (Table 7, checkerboard series with Ramizol, S. aureus ATCC BAA-1717), 4 µg/mL.

`O=C(O)Cc1ccc(/C=C/c2cc(/C=C/c3ccc(CC(=O)O)cc3)cc(/C=C/c3ccc(CC(=O)O)cc3)c2)cc1` [Chlopam, 2,2′,2″-{[(1E,1′E,1″E)-benzene-1,3,5-triyltris(ethene-2,1-diyl)]tris(benzene-4,1-diyl)}triacetic acid]: the MIC in test [1] (setting [4]) is 0.5 µg/mL; in test [2] (Table 4, checkerboard series with Chlopam, S. aureus ATCC BAA-1717), 1 µg/mL.

Regarding `Cc1onc(-c2ccccc2)c1C(=O)N[C@@H]1C(=O)N2[C@@H]1SC(C)(C)[C@@H]2C(=O)O` [Oxacillin], the “FICI of combination with Chlopam” value is 1.0 in test [1] (Chlopam 0.003906 μg/mL + labelled antibiotic at MIC of same cell); 1.0 in test [1] (Chlopam 0.0078125 μg/mL + labelled antibiotic at MIC of same cell); 1.0 in test [1] (Chlopam 0.015625 μg/mL + labelled antibiotic at MIC of same cell); 0.5 and 0.8 in test [1] (Chlopam 0.125 μg/mL + labelled antibiotic at MIC of same line); 0.8 in test [1] (Chlopam 0.25 μg/mL + labelled antibiotic at MIC of same cell); 1.0 in test [1] (Chlopam 0.5 μg/mL + labelled antibiotic at MIC of same cell). Moreover, the “FICI of combination with Chlopam” value in test [2] (Chlopam 0.001953 μg/mL + labelled antibiotic at MIC of same cell, S. aureus ATCC BAA-1717) is 1.0; in test [2] (Chlopam 0.003906 μg/mL + labelled antibiotic at MIC of same cell, S. aureus ATCC BAA-1717), 1.0; in test [2] (Chlopam 0.0078125 μg/mL + labelled antibiotic at MIC of same cell, S. aureus ATCC BAA-1717), 1.0. In addition, the “MIC of antibiotic in combination with Chlopam” value in test [1] (Chlopam 0.003906 μg/mL) is 0.5 µg/mL; in test [1] (Chlopam 0.0078125 μg/mL) it was 0.5 µg/mL; in test [1] (Chlopam 0.015625 μg/mL) it was 0.5 µg/mL; in test [1] (Chlopam 0.125 μg/mL), 0.125 µg/mL and 0.25 µg/mL; in test [1] (Chlopam 0.25 μg/mL), 0.125 µg/mL; in test [1] (Chlopam 0.5 μg/mL), 0.01563 µg/mL. Moreover, in test [1] (Chlopam and Oxacillin: 0.0125 and 0.125 μg/mL), the “Effect of individual antibiotic combinations of lower concentrations” value was “synergistic effect”. In addition, the “FICI of combination with Ramizol” value is 1.0 in test [1] (Ramizol 0.015625 μg/mL + labelled antibiotic at MIC of same cell); 1.0 in test [1] (Ramizol 0.03125 μg/mL + labelled antibiotic at MIC of same cell); 1.0 in test [1] (Ramizol 0.0625 μg/mL + labelled antibiotic at MIC of same cell); 1.0 in test [1] (Ramizol 0.125 μg/mL + labelled antibiotic at MIC of same cell); 1.0 in test [1] (Ramizol 4 μg/mL + labelled antibiotic at MIC of same cell); 1.0 in test [2] (Ramizol 0.015625 μg/mL + labelled antibiotic at MIC of same cell, S. aureus ATCC BAA-1717). Also, the “FICI of combination with Ramizol” value in test [2] (Ramizol 0.03125 μg/mL + labelled antibiotic at MIC of same cell, S. aureus ATCC BAA-1717) is on record as 1.0; in test [2] (Ramizol 0.0625 μg/mL + labelled antibiotic at MIC of same cell, S. aureus ATCC BAA-1717), 1.0. Besides, the “MIC of antibiotic in combination with Ramizol” value in test [1] (Ramizol 0.015625 μg/mL) came to 0.5 µg/mL; in test [1] (Ramizol 0.03125 μg/mL) it was 0.5 µg/mL; in test [1] (Ramizol 0.0625 μg/mL) it was 0.5 µg/mL; in test [1] (Ramizol 0.125 μg/mL) it was 0.5 µg/mL; in test [1] (Ramizol 4 μg/mL), 0.016 µg/mL. Also, the minimum inhibitory concentration (MIC) in test [1] (setting [4]) and in test [1] (setting [3]) was 0.5 µg/mL throughout. For the same molecule, the “Effect of the combinations with Chlopam (by mean FICI)” value in test [1] (labelled antibiotic + Chlopam) is listed as “additive effect”. For the same molecule, the “mean FICI of combination with Chlopam” value in test [1] (labelled antibiotic + Chlopam, mean of all pairwise combinations) is given as 1.0; in test [2] (labelled antibiotic + Chlopam, mean of all pairwise combinations, S. aureus ATCC BAA-1717), 1.2. For the same molecule, the “mean FICI of combination with Ramizol” value in test [1] (labelled antibiotic + Ramizol, mean of all pairwise combinations) stood at 1.2; in test [2] (labelled antibiotic + Ramizol, mean of all pairwise combinations, S. aureus ATCC BAA-1717), 0.9. Also, the “Effect of the combinations with Ramizol (by mean FICI)” value in test [2] (labelled antibiotic + Ramizol, S. aureus BAA-1717) is on record as “additive effect”.
